Assay results taken from patent publication US6229016A, “Method for treating tumors using 2-aryl-naphthyridin-4-ones” (priority 2000, dated 2001).
Like-named read-outs stand apart in the source and are kept apart here.

Assays:
[1] = test system: NCI's 60 human tumor cell line; assay: NCI 60 human tumor cell line in vitro screen (average / whole panel); type: cell-based; settings: calculated from all cell lines tested, molar concentrations, read-out: average log GI50 (converted)
[2] = test system: HL-60(TB) leukemia cell line; assay: cells; type: cell-based; settings: Homo sapiens; HL-60(TB); read-out: Cytotoxicity log GI50 (converted)
[3] = test system: NCI-H460 non-small cell lung cancer cell line; assay: NCI in vitro screen, non-small cell lung cancer NCI-H460; type: cell-based; settings: Homo sapiens, read-out: Cytotoxicity log GI50 (converted)
[4] = test system: HCT-116 colon cancer cell line; assay: NCI in vitro screen, colon cancer HCT-116; type: cell-based; settings: Homo sapiens; HCT-1.16 (head); HCT-116 (footnote); read-out: Cytotoxicity log GI50 (converted)
[5] = test system: SF-295 CNS cancer cell line; assay: NCI in vitro screen, CNS cancer SF-295; type: cell-based; settings: Homo sapiens, read-out: Cytotoxicity log GI50 (converted)
[6] = test system: U-251 CNS cancer cell line; assay: NCI in vitro screen, CNS cancer U-251; type: cell-based; settings: Homo sapiens, read-out: Cytotoxicity log GI50 (converted)
[7] = test system: SK-MEL-5 melanoma cell line; assay: NCI in vitro screen, melanoma SK-MEL-5; type: cell-based; settings: Homo sapiens, read-out: Cytotoxicity log GI50 (converted)
Excerpt: (§1) Compounds 41-51 and 53-68 were submitted to NCI and assayed in the NCI's in vitro disease-oriented antitumor screen, which involves determination of a test compound's effects on the growth of approximately 60 human tumor cell lines. See, M. R. Boyd, et al. In Cancer: Principles and Practice of Oncology Updates; De Vita, V. T., Hellman, S., Rosenberg, S. A., Eds; J. B. Lippincoft: Philadelphia, pp 1-12 (1989); and A. Monks, et al. J. Natl. Cancer Inst. 83:757 (1991). These lines include leukemia, non-small cell lung, colon, central nervous system (CNS), melanoma, ovarian, renal, prostate, and breast cancers.
(§2) Compounds 29'-51' were submitted to NCI and assayed in the NCI's in vitro disease-oriented antitumor screen, using the techniques described in Example 5. This assay involves determinations of a test agent's effect on growth parameters against a panel of approximately 60 human tumor cell lines, derived largely from solid tumors, including non-small cell lung, colon, central nervous system, renal, ovarian, prostate, and breast cancers, plus a few leukemia cell lines. The cytotoxic effects of each compound are obtained as GI50 or […] values, which represent the molar drug concentrations required to cause half growth inhibition and total growth inhibition, respectively. The results are expressed for each cell line as average log GI50 values in Table 4, as log GI50 values in Table 5, and as log TGI values and average log TGI values in Table 6.

[8] = test system: OVCAR-3 ovarian cancer cell line; assay: NCI in vitro screen, ovarian cancer OVCAR-3; type: cell-based; settings: Homo sapiens, read-out: Cytotoxicity log GI50 (converted)
[9] = test system: 786-0 renal cancer cell line; assay: NCI in vitro screen, renal cancer 786-0; type: cell-based; settings: Homo sapiens, read-out: Cytotoxicity log GI50 (converted)
Excerpt: as §1, §2

[10] = test system: PC-3 prostate cancer cell line; assay: NCI in vitro screen, prostate cancer PC-3; type: cell-based; settings: Homo sapiens, read-out: Cytotoxicity log GI50 (converted)
Excerpt: as §1, §2

[11] = test system: MDA-MB-435 breast cancer cell line; assay: NCI in vitro screen, breast cancer MDA-MB-435; type: cell-based; settings: Homo sapiens, read-out: Cytotoxicity log GI50 (converted)
[12] = test system: MDA-N breast cancer cell line; assay: NCI in vitro screen, breast cancer MDA-N; type: cell-based; settings: Homo sapiens, read-out: Cytotoxicity log GI50 (converted)
Excerpt: as §1, §2

[13] = test system: tubulin; assay: Tubulin polymerization assay; type: biochemical, bovine
Procedure: Electrophoretically homogeneous bovine brain tubulin was purified as described in E. Hamel, et al. Biochemistry 23:4173 (1984).
The tubulin polymerization assay was performed as described in S. Kuo, et al. J. Med. Chem. 36:1146 (1993); L. Li, et al. J. Med. Chem. 37:1126 (1994); and L. Li J. Med. Chem. 37:3400 (1994). In brief, tubulin at 1.2 mg/ml (12 μM) was preincubated for 15 min at 26° C. in a 0.24-ml volume of 0.8 M monosodium glutamate (pH 6.6 with NaOH in a 2 M stock solution) with varying drug concentrations. The drug stock solutions were in DMSO, and the final solvent concentration was 4 % (v/v). All concentrations are in terms of the final reaction volume (0.25 ml). The reaction mixtures were chilled on ice, and 10 μl of 10 mM GTP was added to each reaction mixture. Samples were transferred to cuvettes held at 0° C. by an electronic temperature controller in Gilford spectrophotometers. Baselines were established at 350 nm, and polymerization initiated by a temperature jump to 26° C. The jump took about 50 sec to complete. After 20 min, turbidity readings were recorded, and the temperature controller was set to 0C. When depolymerization was complete, turbidity readings were again recorded. […] IC50 values were obtained graphically from inhibition of polymerization by different drug concentrations.
Electrophoretically, homogeneous bovine brain tubulin was purified as described in Example 6.
The tubulin polymerization assay was performed as described in Example 6.

[14] = Tables 1 and 4, read-out: ITP HC50 ± SD (Inhibition of Tubulin Polymerization)

IC50 [13, 14]	SMILES	GI50 [1]	GI50 [2]	GI50 [3]	GI50 [4]	GI50 [5]	GI50 [6]	GI50 [7]	GI50 [8]	GI50 [9]	GI50 [10]	GI50 [11]	GI50 [12]	IC50 ([13]; read-out: IC50, inhibition of tubulin polymerization)
–	COc1ccc(-c2cc(=O)c3cccnc3[nH]2)cc1 [Compound 51]	38 µM	12.9 µM	26.3 µM	17.8 µM	64.6 µM	53.7 µM	34.7 µM	30.2 µM	56.2 µM	31.6 µM	20 µM	20.9 µM	–
–	COc1ccc(-c2cc(=O)c3c(C)ccnc3[nH]2)cc1 [Compound 52]	12.9 µM	4.37 µM	6.17 µM	6.46 µM	19.5 µM	6.31 µM	3.89 µM	13.8 µM	25.1 µM	18.2 µM	2.4 µM	2.09 µM	–
2.9 ± 0.7 µM	Cc1ccc(C2=Nc3nccc(C)c3C(=O)C2)cc1 [Compound 67, 2-(4'-Methylphenyl)-5-methyl-1,8-naphthyridin-4-one]	–	–	–	–	–	–	–	–	–	–	–	–	–
2.4 ± 0.8 µM	Cc1ccc(C2=Nc3ncc(C)cc3C(=O)C2)cc1 [Compound 68, 2-(4'-Methylphenyl)-6-methyl-1,8-naphthyridin-4-one]	–	–	–	–	–	–	–	–	–	–	–	–	–
4.9 ± 0.2 µM	Cc1ccc(C2=Nc3nc(C)ccc3C(=O)C2)cc1 [Compound 69, 2-(4'-Methylphenyl)-7-methyl-1,8-naphthyridin-4-one]	–	–	–	–	–	–	–	–	–	–	–	–	–
9.8 ± 2 µM	Cc1ccc(C2=Nc3nc(C)cc(C)c3C(=O)C2)cc1 [Compound 70, 2-(4'-Methylphenyl)-5,7-dimethyl-1,8-naphthyridin-4-one]	–	–	–	–	–	–	–	–	–	–	–	–	–

SMILES	IC50 [13, 14]	GI50 [1]	GI50 [2]	GI50 [3]	GI50 [4]	GI50 [5]	GI50 [6]	GI50 [7]	GI50 [8]	GI50 [9]	GI50 [10]	GI50 [11]	GI50 [12]	IC50 ([13]; read-out: IC50, inhibition of tubulin polymerization)
COc1ccc(C2=Nc3ncc(C)cc3C(=O)C2)cc1 [Compound 53, 2-(4'-Methoxyphenyl)-6-methyl-1,8-naphthyridin-4-one]	7.7 ± 0.7 µM	6.17 µM	2.29 µM	4.07 µM	4.17 µM	5.25 µM	4.17 µM	3.72 µM	2.95 µM	5.13 µM	5.37 µM	1.82 µM	1.7 µM	1.5 to 9.8 µM
COc1ccc(C2=Nc3nc(C)ccc3C(=O)C2)cc1 [Compound 54, 2-(4'-Methoxyphenyl)-7-methyl-1,8-naphthyridin-4-one]	> 40 µM	91.2 µM	> 100 µM	> 100 µM	> 100 µM	89.1 µM	> 100 µM	47.9 µM	> 100 µM	> 100 µM	> 100 µM	42.7 µM	55 µM	–
COc1ccc(C2=Nc3nc(C)cc(C)c3C(=O)C2)cc1 [Compound 55, 2-(4'-Methoxyphenyl)-5,7-dimethyl-1,8-naphthyridin-4-one]	> 40 µM	33.1 µM	15.8 µM	40.7 µM	36.3 µM	42.7 µM	91.2 µM	17.8 µM	32.4 µM	58.9 µM	24 µM	28.8 µM	33.1 µM	–
